Source: patent publication US20250049795A1, “USE OF 5-(2-((5-(4-(DIMETHYLAMINO)PIPERIDIN-1-YL)PYRIDIN-2-YL)AMINO)-5-FLUOROPYRIMIDIN-4-YL)-N,4-DIMETHYLTHIAZOL-2-AMINE IN COMBINATION THERAPIES FOR CANCER” (Aucentra Therapeutics Pty Ltd, priority 2022, published 2025)
Entries after “also recorded” stand apart in the source; their conditions may differ.

How the values were obtained:
[1] = tested on: CT26.WT colorectal cancer cells; experiment: In vivo anti-tumour activity in mice with a colorectal cancer syngeneic allograft; design: species or system mouse
Description: Murine triple-negative breast cancer EMT6 tumour cells (ATCC® CRL-2755™) and colorectal cancer CT26.WT cells (ATCC® CRL-2638™) were cultured and expanded in RPMI-1640 medium (Roswell Park Memorial Institute Medium-1640) with L-glutamine and sodium bicarbonate (Sigma-Aldrich, Macquarie Park, NSW, Australia) supplemented with 10% heat-inactivated foetal bovine serum (FBS). Cells were cultured in an incubator at 5% CO2 37° C.
(§1) CT26.WT colorectal cancer cells were harvested and re-suspended in a 1:1 mixture of Matrigel™ (#354234; Corning Life Sciences, Corning, NY, United States of America) and serum-free RPMI-1640 medium, and thereafter injected sub-cutaneously (sc) (7×10^5 cells in a volume of 100 μL) into the right flank of each female BALB/c mouse. After the tumour volume reached ˜100 mm^3, the mice were randomised into two groups (n=8/group) and given vehicle (1% CMC in water), compound 1 (150 mg/kg) once daily by oral administration (QD PO), Anti-PD1 (RMP1-14-derived mouse monoclonal antibody, Assay Matrix, Australia; […]) by intraperitoneal (ip) administration, or compound 1 plus anti-PD-1 antibody (FIG. 1).

[2] = target: T1, CDK4/cyclin D1 (Homo sapiens, UniProt P11802); experiment: CDK inhibition, kinase assay (radiometric / ADP Glo); format: biochemical
T1 construct: purchased Eurofins Pharma Discovery or Reaction Biology Corporation (radiometric service)
T1 sequence (P11802 whole entry): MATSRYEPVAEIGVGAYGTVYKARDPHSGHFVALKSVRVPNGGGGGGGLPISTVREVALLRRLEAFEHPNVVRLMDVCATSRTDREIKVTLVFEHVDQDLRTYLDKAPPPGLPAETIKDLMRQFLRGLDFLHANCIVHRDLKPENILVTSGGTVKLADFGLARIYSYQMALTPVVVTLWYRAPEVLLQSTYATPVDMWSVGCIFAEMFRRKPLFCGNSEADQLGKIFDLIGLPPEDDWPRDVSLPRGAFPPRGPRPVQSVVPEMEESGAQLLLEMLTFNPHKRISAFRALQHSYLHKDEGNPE
T1 sequence (P24385 whole entry partner): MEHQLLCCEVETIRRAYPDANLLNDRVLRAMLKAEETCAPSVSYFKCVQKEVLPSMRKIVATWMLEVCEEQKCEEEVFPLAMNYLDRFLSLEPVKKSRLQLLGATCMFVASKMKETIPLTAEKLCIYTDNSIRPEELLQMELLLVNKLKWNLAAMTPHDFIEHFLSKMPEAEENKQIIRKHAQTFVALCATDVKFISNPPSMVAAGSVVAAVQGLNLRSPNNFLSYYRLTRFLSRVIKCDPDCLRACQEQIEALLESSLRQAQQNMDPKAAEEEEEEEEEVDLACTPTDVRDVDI
Description: Serial dilutions of 1:3 were prepared for test compounds for 10 concentrations (from 10 μM to 0.5 nM). […] Positive and negative controls were performed in the presence and absence of CDK kinases, respectively. Half-maximal inhibition (IC50) values were calculated using a 4-parameter logistic non-linear regression model with Graphpad prism (Version 6.0). Apparent inhibition constants (Ki) values were calculated from Km (ATP) and IC50 values for the respective kinases.

[3] = tested on: T cell populations (CD3+, CD8+); experiment: Flow cytometry study of immune profiles in CT26.WT syngeneic mouse model; format: in vivo; conditions: day 14 of dosing, 3 mice of each group
Excerpt: FIG. 2 provides further graphical results showing the in vivo anti-tumour efficacy of compound 1 in the CT26.WT syngeneic mouse model through activation of immunity. In the experiment, on day 14 of dosing, 3 mice of each group were sacrificed for flow cytometry study of immune profiles.
as §1, with “1). Compound 1 achieved significant tumour growth inhibition with a T/C=24% when used alone, and T/C=14% when used in the combination with the anti-PD-1 antibody, as measured on day 14 of dosing (FIG. 1).” for “1).”

[4] = tested on: other members of CDK family; experiment: Kinase profiling of CDK family; format: biochemical
Description: Eurofins Pharma Discovery or Reaction Biology Corporation Kinase Profiler services were used to measure inhibition of CDKs and other kinases by radiometric assay (RIA). Inhibition of CDK4/cyclin D1, CDK6/cyclin D3 and CDK9/cyclin T1 were also determined using ADP Glo Kinase assays (Promega Corporation, Madison WI, United States of America). Briefly, the kinase reaction for CDK4/cyclin D1 and CDK6/cyclin D3 was performed with kinase reaction buffer ([…] Tris base pH 7.5, 20 mM MgCl2, 0.4 mM DTT), 0.1 mg/ml BSA and RB-CTF substrate (retinoblastoma protein1 C-terminal fraction). For CDK9/cyclin T1, the kinase reaction was performed with standard assay buffer and Kinase Dilution Buffer and RBER-IRStide substrate. Serial dilutions of 1:3 were prepared for test compounds for 10 concentrations (from 10 μM to 0.5 nM). The kinase reactions were started by addition of ATP, incubated for 40 min at […] and then stopped by adding 10 μL of ADP Glo reagent. […] Luminescence was measured using an EnVision Multilabel plate reader (PerkinElmer, Buckinghamshire, United Kingdom). […] Half-maximal inhibition (IC50) values were calculated using a 4-parameter logistic non-linear regression model with Graphpad prism (Version 6.0). Apparent inhibition constants (Ki) values were calculated from Km (ATP) and IC50 values for the respective kinases.

CNc1nc(C)c(-c2nc(Nc3ccc(N4CCC(N(C)C)CC4)cn3)ncc2F)s1 [Compound 1, 5-(2-((5-(4-(dimethylamino)piperidin-1-yl)pyridin-2-yl)amino)-5-fluoropyrimidin-4-yl)-N,4-dimethylthiazol-2-amine]
extended survival of animals ([1]; BALB/c mice, CT26.WT allograft, compound 1 150 mg/kg QD PO, anti-PD1 ip, p<0.001): 60% | survival of the mice (in words) ([1]; BALB/c mice, CT26.WT allograft, p<0.001): significantly prolong the survival | tumor volume in treatment vs control ratio (T/C) ([1]; female BALB/c mice, sc CT26.WT allograft, day 14 of dosing, compound 1 150 mg/kg QD PO, Anti-PD1 150 g/mouse/wk ip): 24% | selectivity for CDK4 over CDK6 [2]: 140 fold | T cell populations (% CD3+ and % CD8+) in spleen, blood and tumour samples [3]: increased T cell populations; also recorded: increased level | activity against other members of CDK family [4]: no activity
